Test results taken from paper PMC6143143 (Biochemistry, 2018).

Legend:
SeCobD = target: T1, SeCobD (Salmonella enterica, UniProt P97084); assay: […]-NMR and […] TLC decarboxylation assay; assay type: biochemical; settings: decarboxylated to (R)-1-aminopropan-2-ol O-phosphate; pH 8.5
T1 sequence (P97084 1-364): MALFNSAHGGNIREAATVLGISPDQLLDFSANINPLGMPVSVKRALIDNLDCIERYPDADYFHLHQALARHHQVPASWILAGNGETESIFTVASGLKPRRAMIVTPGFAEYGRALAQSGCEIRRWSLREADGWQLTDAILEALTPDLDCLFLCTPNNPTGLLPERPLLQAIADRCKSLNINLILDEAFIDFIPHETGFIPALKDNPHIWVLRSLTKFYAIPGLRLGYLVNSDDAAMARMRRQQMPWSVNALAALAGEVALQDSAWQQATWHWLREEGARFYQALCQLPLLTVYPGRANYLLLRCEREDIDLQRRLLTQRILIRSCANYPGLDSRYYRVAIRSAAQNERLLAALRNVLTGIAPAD

[1] = target: MmCobD (MM2060 protein, full length) (Methanosarcina mazei, UniProt Q8PVB1); assay: ADP-Glo ATPase inhibition assay; assay type: biochemical; settings: MmCobD 6 μM, HEPES pH 7.5

With `C[C@@H](OP(=O)(O)O)[C@H](N)C(=O)O` [L-Thr-P] as the compound, how does the “13C-NMR and 14C TLC decarboxylation assay” value (SeCobD) read?
Its value is “conversion of L-Thr-P (peaks A, B, C, D; red) to AP-P”.

`[O]=[V]([OH])([OH])[OH]` [Na3VO4] was tested. Which inhibition ([1]; inhibitor 1 mM, weakest of the series) did it give?
The inhibition was “MmCobD was inhibited in the following order from most inhibitory to least: BeF2>ADP>ADP-γ-S>PPPi>Na3VO4”.

For `O=P(O)(O)OP(=O)(O)OP(=O)(O)O` [PPPi], which inhibition ([1]; inhibitor 10 mM) is on record?
The inhibition was “MmCobD was inhibited in the following order from most inhibitory to least: BeF2>ADP>ADP-γ-S>PPPi>Na3VO4”.
